Patent US9849146B2, “Inhibition of nonsense mediated mRNA decay by drugs that prevent hypusination of eukaryotic initiation factor 5A” (RUTGERS, THE STATE UNIVERSITY OF NEW JERSEY, priority 2009, dated 2017)
“Also recorded” adds a separate entry of the source.

Key:
eIF5A:DOHH complex = molecular target: T1, eIF5A:DOHH complex (Homo sapiens, UniProt Q9BU89); assay: Co-immunoprecipitation of the eIF5A:DOHH complex from transfected 293T cells; type: cell-based; conditions: CPX 30 μM, DEF 250 μM; for interaction between endogenous eIF5A and tagged DOHH: FLAG-DOHH transfected 293T cells; for association of endogenous DOHH with FLAG-eIF5A (co-immunoprecipitation): GC7 10 μM, P2 30 μM, DFOX 10 μM, 24 hours post-transfection
T1 construct: Endogenous DOHH co-immunoprecipitated with FLAG-eIF5A; expressed in transfected cells; host or cells: 293T cells (FLAG-eIF5A transfected; DOHH endogenous)
T1 sequence (Q9BU89 1-302): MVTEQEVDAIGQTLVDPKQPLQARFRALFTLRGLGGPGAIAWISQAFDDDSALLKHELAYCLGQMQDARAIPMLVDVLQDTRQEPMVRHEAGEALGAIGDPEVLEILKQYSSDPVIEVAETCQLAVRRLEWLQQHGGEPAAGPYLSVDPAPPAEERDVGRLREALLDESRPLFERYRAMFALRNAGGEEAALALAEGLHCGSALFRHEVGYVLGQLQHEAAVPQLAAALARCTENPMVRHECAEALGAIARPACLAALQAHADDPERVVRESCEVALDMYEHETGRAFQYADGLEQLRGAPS
Description: Unmodified eIF5A (lysine-50) immunoprecipitates with DHS, and deoxyhypusyl-eIF5A interacts with DOHH in vitro. The deoxyhypusyl-eIF5A:DOHH complex formed in vivo can be detected by immunoprecipitation from cell extracts. Taking advantage of this finding, the effects of the compounds on the enzyme-substrate interaction was tested, the results of which are illustrated in FIG. 2D. FLAG-eIF5A was expressed in 293T cells. 293T cells transfected with FLAG-eIF5A were untreated (-) or treated with GC7 (10 μM) or CPX (30 μM), P2 (30 μM), DEF (250 μM), or DFOX (10 μM). WCE prepared at 24 hours post-transfection was immunoprecipitated with anti-FLAG antibody. Complexes that immunoprecipitated with anti-FLAG antibody were immunoblotted and probed with antibodies against DOHH. […] As a further control, the DHS inhibitor GC7 was included in this assay. […] As expected, none of the compounds affected the immunoprecipitation of FLAG-eIF5A (FIG. 2D, middle panel; note that the band marked with an asterisk (*) is background due to IgG light chain) or the expression of endogenous eIF5A (FIG. 2D, bottom panel).
(§1) FIG. 2E illustrates 293T cells transfected with FLAG-DHS, FLAG-DOHH or empty vector (control) were treated with GC7, CPX, or DEF, or no drug (-) at the same concentration as in FIG. 2D. Immunoprecipitates obtained with anti-FLAG antibody were immunoblotted and probed with anti-eIF5A antibody (BD). WCE equivalent to 5% of the input was immunoblotted as a further control. Reciprocally, the interaction between endogenous eIF5A and tagged DOHH was inhibited by CPX and DEF (FIG. 2E, right). Similarly, the interaction of endogenous eIF5A with tagged DHS was inhibited by GC7 (FIG. 2E, left), but was resistant to CPX and DEF (not shown).

eIF5A:DHS complexes = molecular target: T2, eIF5A:DHS complexes (Homo sapiens, UniProt P49366); assay: Co-immunoprecipitation of endogenous eIF5A with FLAG-DHS from transfected 293T cells; type: cell-based; conditions: FLAG-DHS transfected 293T cells; GC7 10 μM, CPX 30 μM, DEF 250 μM
T2 construct: expressed in transfected cells; host or cells: 293T cells (FLAG-DHS transfected; eIF5A endogenous)
T2 sequence (P49366 1-369): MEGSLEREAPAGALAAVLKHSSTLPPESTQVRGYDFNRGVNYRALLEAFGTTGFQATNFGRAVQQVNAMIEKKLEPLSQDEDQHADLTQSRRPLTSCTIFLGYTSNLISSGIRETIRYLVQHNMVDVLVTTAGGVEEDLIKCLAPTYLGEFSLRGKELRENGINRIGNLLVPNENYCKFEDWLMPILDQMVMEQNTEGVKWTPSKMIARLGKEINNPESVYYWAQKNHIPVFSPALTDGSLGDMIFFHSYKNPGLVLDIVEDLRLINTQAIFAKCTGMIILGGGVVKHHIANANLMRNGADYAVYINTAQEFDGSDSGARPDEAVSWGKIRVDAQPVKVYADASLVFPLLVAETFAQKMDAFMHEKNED
Description: as §1

NMD = NMD luciferase reporter assay with vectors containing NMD signals associated with β039-thalassemia; type: cell-based; conditions: for submaximal effect of the NMD inhibitor when combined with nonsense suppressor G418: 15 μM CPX, 125 μM DEF, 200 μM HYD, G418 at 800 μM; for drug concentrations at which inhibition of NMD is seen: dose-dependent; for NMD in the thalassemia model system: ratio of Renilla luciferase from NMD-sensitive reporter to matched NMD-insensitive control
Description: The experiment of FIG. 5 used RNA silencing with small interfering RNAs (siRNAs) to deplete eIF5A itself, or either of the modifying enzymes required for hypusine formation. […] Data are shown as ratio of luciferase activities.
These experiments were carried out in the well-authenticated assay system using vectors containing NMD signals associated with β^039-thalassemia (Woeller C F, Gaspari M, Isken O, Maquat L.: EMBO Rep. 2008 May; 9(5):446-51).

[1] = cited from earlier work
DOHH = molecular target: T3, DOHH (Homo sapiens, UniProt Q9BU89); assay: Immunoblot of eIF5A modification (maturation) in 293T cells transfected with FLAG-tagged eIF5A; type: cell-based; conditions: for concentration range reducing the appearance of mature eIF5A: FLAG-eIF5A, NIH-353 immunoblot
T3 construct: endogenous in cells; host or cells: 293T cells
T3 sequence (Q9BU89 1-302): T1 sequence (Q9BU89 1-302)
From the text: To examine the effect of compounds on the synthesis of modified eIF5A, 293T cells transfected with a FLAG-tagged eIF5A expression vector were simultaneously treated with ciclopirox (“CPX”) or deferiprone (“DEF”).
FLAG-eIF5A was monitored using NIH-353 and anti-FLAG antibodies (FIGS. 2A and 2B). FIG. 2A illustrates inhibition of eIF5A modification in 293T cells. Cells transfected with FLAG-tagged eIF5A were untreated or treated with increasing concentrations of CPX as indicated, or with agent P2. FIG. 2B illustrates cells transfected with FLAG-tagged eIF5A that were untreated or treated with increasing concentrations of DEF as indicated, or with DFOX. At 24 hours post-transfection, whole cell extract (“WCE”) was analyzed by immunoblotting with the NIH-353 anti-eIF5A antibody (upper panel) and anti-actin antibody (lower panel). The […] antibody reacts preferentially with post-translationally modified eIF5A. CPX reduced the appearance of mature eIF5A over the 3-30 μM concentration range, while DEF was effective at 200-400 μM. […] In addition to the CPX homolog Agent P2, deferoxamine (“DFOX”; Desferal™) was used as a control compound. DFOX, a metal-binding hydroxamate like CPX and Agent P2 (FIG. 3), is a globally used medicinal iron chelator.
FIG. 2C illustrates cells transfected with FLAG-tagged eIF5A that were treated with CPX (30 μM), P2 (30 μM), DEF (250 μM), DFOX (10 μM), or no compound (-). At 24 hours post transfection, WCE was analyzed by immunoblotting with the NIH-353 anti-eIF5A antibody (upper panel) and anti-FLAG antibody (lower panel). The control culture was transfected with empty vector and no compound was added.

[2] = 293T cells, 24 hours post-transfection

| interaction between endogenous eIF5A and tagged DOHH (eIF5A:DOHH complex) | interaction of endogenous eIF5A with tagged DHS (eIF5A:DHS complexes) | submaximal effect of the NMD inhibitor when combined with nonsense suppressor G418 (NMD) | NMD in the thalassemia model system (NMD) | concentration range reducing the appearance of mature eIF5A (DOHH; [2]) | Compound | association of endogenous DOHH with FLAG-eIF5A (co-immunoprecipitation) (eIF5A:DOHH complex) | drug concentrations at which inhibition of NMD is seen (NMD; thalassemia model system) | further results |
| --- | --- | --- | --- | --- | --- | --- | --- | --- |
| inhibited | resistant | distinctly enhanced | inhibited | 3 to 30 µM | Cc1cc(C2CCCCC2)n(O)c(=O)c1 [CPX, ciclopirox] | largely prevented; also recorded: destabilized | 15/30 | levels in skin ([1]; topical preparations containing up to 57.5 mM): > 30 µM |
| inhibited | resistant | distinctly enhanced | inhibited | 200 to 400 µM | Cc1c(O)c(=O)ccn1C [DEF, deferiprone] | largely prevented; also recorded: destabilized | 125/250 | NMD inhibition by single compound (NMD; DEF at 125 μM, HYD at 200 μM, each alone): ineffective individually; concentration in serum ([1]; after oral medication): ≥ 250 µM |
| – | – | – | – | – | CN[C@@H]1[C@@H](O)[C@@H](O[C@@H]2[C@@H](O)[C@H](O[C@H]3O[C@H]([C@@H](C)O)[C@@H](O)[C@H](O)[C@H]3N)[C@@H](N)C[C@H]2N)OC[C@]1(C)O [G418] | – | – | effect on expression (nonsense suppressor, for comparison) (NMD; thalassemia model system): expression-enhancing effect |
| – | – | – | – | – | NNc1nncc2ccccc12 [HYD, hydralazine] | – | 200/400 | – |
| – | – | – | – | – | Cc1ccn(O)c(=O)c1 [P2] | neither P2 or DFOX prevented; also recorded: Neither DFOX nor P2 had any effect | – | activity in cell-based assays (DOHH): little or no activity; effect on the appearance of mature FLAG-eIF5A (DOHH; 293T cells, 24 hours post-transfection, control compounds): little or no effect |

| Compound | interaction between endogenous eIF5A and tagged DOHH (eIF5A:DOHH complex) | interaction of endogenous eIF5A with tagged DHS (eIF5A:DHS complexes) | submaximal effect of the NMD inhibitor when combined with nonsense suppressor G418 (NMD) | NMD in the thalassemia model system (NMD) | concentration range reducing the appearance of mature eIF5A (DOHH; [2]) | association of endogenous DOHH with FLAG-eIF5A (co-immunoprecipitation) (eIF5A:DOHH complex) | drug concentrations at which inhibition of NMD is seen (NMD; thalassemia model system) | further results |
| --- | --- | --- | --- | --- | --- | --- | --- | --- |
| NCCCCCCCN=C(N)N [GC7] | – | inhibited; also recorded: blocked formation | – | – | – | No DOHH was associated with FLAG-eIF5A | – | – |
